The values below come from patent publication US20170224683A1, “TREATMENT OF MELANOMA BY BLOCKING BENZAMIL SENSITIVE ION CHANNELS/EXCHANGERS” (The Board of Trustees of the Leland Stanford Junior …, priority 2014, published 2017).

What all share (format): cell-based
The test system of data set [1] is V12 Rac1 mutant primary foreskin-derived melanocytes. The experiment in a line: MTT proliferation assay, V12 Rac1 melanocytes. Here is the method: FIG. 1A-1C: Benzamil inhibits V12 Rac1 driven melanocyte invasion and proliferation in vitro. […] Invasion was abolished in conditions treated with 50 uM Benzamil (FIG. 1A, FIG. 1B).
Invasion was abolished in conditions treated with 50 μM Benzamil.
(§1) MTT proliferation assay. 25000 melanocytes were plated in each well in a 96 well plate, and incubated with 100 ul DMEM with 10% FBS 1% AA for 24 hours. 10 ul MTT reagent (MTT proliferation assay, ATCC, Manassas, US) was added for 4 hours, 100 ul detergent was added to each well for 2 hours., and absorbance read at 570 nm (Spectramax M5, Molecular Devices, US), normalized to cell-free control absorbance.
For orientation: Tetrazolium assays rely on reduction of a dye to a coloured formazan, in cell work by metabolically active cells.

The test system of data set [2] is MM485 melanoma cell line. Description: MTT proliferation assay, MM485. The note with it: 50 uM. Here is the method:
(§2) FIG. 3A-3D: Benzamil reduce invasion and proliferation of melanoma cell lines expressing increased Rac1GTP. […] Stimulation with Benzamil at 50 uM was not toxic, but reduced proliferation in COLO829,MM485,CHL1 melanoma cell lines similar to V12 Rac1 mutant primary melanocytes FIG. 3D.
(§3) Benzamil reduce invasion and proliferation of melanoma cell lines expressing increased Rac1GTP. […] Stimulation with Benzamil at 50 μM was not toxic, but reduced proliferation in COLO829,MM485,CHL1 melanoma cell lines similar to V12 Rac1 mutant primary melanocytes.
as §1

Data set [3] concerns CHL1 melanoma cell line. Description: MTT proliferation assay, CHL1. Particulars: 50 uM. Here is the method: as §2, §3, §1
Data set [4] has as its system COLO829 melanoma cell line. Description: MTT proliferation assay, COLO829. Particulars: 50 uM. Here is the method: as §2, §3, §1

With `NC(=NCc1ccccc1)NC(=O)c1nc(Cl)c(N)nc1N` [Benzamil, benzyl amiloride], the “Dosage tolerated in vitro (assessed by detectable proliferation)” value in data set [1] is on record as “up to 100 uM”. In addition, the toxicity result in data set [2], in data set [3] and in data set [4] was “not toxic” throughout.
